# US6017511A, “Glycopeptide-chelator conjugates” (Resolution Pharmaceuticals Inc., priority 1997, dated 2000)
# Legend:
# [1] = system: S. aureus; assay: microbe, parasite or virus in culture; assay type: cell-based; settings: for antimicrobial activity at the concentrations tested: S. aureus, up to 64 mg/mL
# Description: (§1) Fresh cultures of bacteria are made from frozen stock stored at -80° C. To inoculate a fresh culture, the stock is removed from the freezer and continually kept frozen by being placed on dry ice. A small amount is removed using a sterile wooden applicator and transferred to a 50 mL culture flask, with screw cap, containing 10 mL of broth medium. The culture is incubated at 37° C. on an orbital shaker at 200 rpm overnight. The various bacteria and broth media used are:
# (§2) The following day, the cultures are subcultured by transferring […] (O.D. dependent) to a new culture flask containing 20 mL broth. The subcultures are incubated at 37° C. on a shaker (200 rpm) and the bacteria are allowed to grow to mid-log phase. This is usually around 1×10^8 cfu/mL, determined by measuring the O.D. of the subculture. The correlation between O.D. and growth of each bacteria has been previously established.
# (§3) Once the proper O.D. has been obtained, a 200- or 400-fold dilution is made of the subculture and 1 mL of this dilution is added to 1 mL of compound or antibiotic (i.e. 2-fold dilution) to give a final concentration of 0, 2, 4, 8, 16, 32, and 64 mg/mL compound or antibiotic. A 100-fold dilution is made from the control culture (0 mg/mL) and […] samples (i.e. 1000-fold dilution) are plated onto a TSA (tryptic soy agar; Difco). The cultures are incubated overnight at 37° C. on an orbital shaker (200 rpm). The TSA plates are also incubated overnight at 37° C.
# (§4) The following day, the cultures are examined for growth or turbidity. […] samples (i.e. 10-fold dilution) of any of the cultures showing no turbidity, i.e. no growth, are plated onto TSA. The plates are incubated overnight at 37° C. and the number of cfu, if any, are counted. The control TSA plates are counted for the number of cfu for comparison with the culture plates.
# (§5) MIC (minimal inhibitory concentration) is determined to be the lowest concentration at which growth of the bacteria is arrested. MBC (minimal bactericidal concentration) is determined to be the lowest concentration at which the bacteria are being killed.
# [2] = system: E. coli; assay: Antimicrobial assay; assay type: cell-based; settings: up to 64 mg/mL
# Description: as §1, §2, §3, §4, §5
# [3] = system: P. aeruginosa; assay: Antimicrobial assay; assay type: cell-based; settings: up to 64 mg/mL
# Description: as §1, §2, §3, §4, §5
# [4] = system: C. albicans (ATCC 14053); assay: Filter binding assay of Tc-99m-labelled conjugates; settings: Tc-99m-labelled conjugate
# Description: (§6) *Note: C. albicans has a longer growth cycle than the other microorganisms and, therefore, the culture is incubated for 2 days. Also, the optimum growth temperature for C. albicans is 30° C.
# C. albicans (ATCC 14053)→YM Broth (YMB; Difco)
# The cultures are then subcultured by removing 50-150 mL of the culture (O.D. dependent) and transferring to a 50 mL culture flask containing 20 mL broth. […] The concentration of each microorganism is determined by reading the optical density (O.D.) of the subculture using a spectrophotometer.
# (§7) The flasks are incubated in a shaking water bath (200 rpm) at 37° C. […] There is also a background which is a flask containing broth with no microorganism and to which the radioactivity is also added. […] The filters are then assayed for radioactivity using a gamma well counter (Cobra II; Canberra Packard). […]
# [5] = Filter binding assay of Tc-99m-labelled conjugates; settings: Tc-99m-labelled conjugate, zymosan suspension 50 mg/mL
# Description: as §6
# The flasks are incubated in a shaking water bath (200 rpm) at 37° C. A 10 mL zymosan suspension at 50 mg/mL and a 0.5% carrageenan mixture are also made. There is also a background which is a flask containing broth with no microorganism and to which the radioactivity is also added. At various time intervals, 200 mL of the cultures, suspensions, and the background is removed and filtered through 25 mm diam., 22 mm, cellulose acetate/nitrate, membrane filters (Millipore) using a Millipore vacuum manifold. The filters are washed 3× with 1 mL PBS. The filters are then assayed for radioactivity using a gamma well counter (Cobra II; Canberra Packard). The time intervals at which the cultures are sampled are: […]
# [6] = system: S. aureus (ATCC 25923); assay: Filter binding assay of Tc-99m-labelled conjugates; settings: Tc-99m-labelled conjugate, 37° C.
# Description: S. aureus (ATCC 25923)→TSB
# (§8) The cultures are then subcultured by removing 50-150 mL of the culture (O.D. dependent) and transferring to a 50 mL culture flask containing 20 mL broth. The subcultures are incubated at 37° C. or 30° C. until a growth concentration of 10^8 cfu (colony forming unit)/mL is reached. The concentration of each microorganism is determined by reading the optical density (O.D.) of the subculture using a spectrophotometer. The correlation between O.D. and growth of each microorganism has been previously established.
# as §7
# [7] = system: E. coli (ATCC 25922); assay: Filter binding assay of Tc-99m-labelled conjugates; settings: Tc-99m-labelled conjugate, 37° C.
# Description: E. coli (ATCC 25922)→Tryptic Soy Broth (TSB; Difco)
# as §8, §7
# [8] = system: P. aeruginosa (ATCC PAO-PR1); assay: Filter binding assay of Tc-99m-labelled conjugates; settings: Tc-99m-labelled conjugate, 37° C.
# Description: Frozen cultures of bacteria are stored in vials at -80° C. until use. To inoculate a fresh bacterial culture, the vial of bacteria is removed from the freezer and continually kept frozen by being placed on dry ice. A small amount is removed using a sterile wooden applicator and transferred to a 50 mL culture flask, with screw cap, containing 10 mL of broth medium. The culture is incubated at 37° C. on a shaker at 200 rpm overnight*. The various microorganisms or compounds and broth media used are:
# P. aeruginosa (ATCC PAO-PR1)→TSB
# The cultures are then subcultured by removing […] of the culture (O.D. dependent) and transferring to a 50 mL culture flask containing 20 mL broth. The subcultures are incubated at 37° C. or 30° C. until a growth concentration of 10^8 cfu (colony forming unit)/mL is reached. The concentration of each microorganism is determined by reading the optical density (O.D.) of the subculture using a spectrophotometer. […]
# Once the proper O.D. has been reached, 10 mL of the subculture is transferred to a 15 mL culture flask and 1×10^6 cpm of Tc-99m-labelled compound is added. […] There is also a background which is a flask containing broth with no microorganism and to which the radioactivity is also added. […] The filters are then assayed for radioactivity using a gamma well counter (Cobra II; Canberra Packard). […]
Compound,antimicrobial activity at the concentrations tested [1],"MBC ([1]; Staphylococcus aureus, read-out: MBC (minimal bactericidal concentration))",antimicrobial activity at the concentrations tested [2],antimicrobial activity at the concentrations tested [3],"Filter Binding Assay Results at 2 h, C. albicans [4]","Filter Binding Assay Results at 2 h, Zymosan [5]","Filter Binding Assay Results at 2 h, S. aureus [6]","Filter Binding Assay Results at 2 h, E. coli [7]",MBC (minimal bactericidal concentration) [1],MIC (minimal inhibitory concentration) [1],"Filter Binding Assay Results at 2 h, P. aeruginosa [8]"
"CN[C@H](CC(C)C)C(=O)N[C@H]1C(=O)N[C@@H](CC(N)=O)C(=O)N[C@H]2C(=O)N[C@H]3C(=O)N[C@H](C(=O)N[C@H](C(=O)O)c4cc(O)cc(O)c4-c4cc3ccc4O)[C@H](O)c3ccc(c(Cl)c3)Oc3cc2cc(c3O[C@@H]2O[C@H](CO)[C@@H](O)[C@H](O)[C@H]2O[C@H]2C[C@](C)(N)[C@H](O)[C@H](C)O2)Oc2ccc(cc2Cl)[C@H]1O [Vancomycin, reference compound]",antimicrobial against only S. aureus,32 to 64 mg/mL,antimicrobial against only S. aureus,antimicrobial against only S. aureus,–,–,–,–,–,–,–
DimethylGly-Ser-Cys(Acm)-(βAla)3 -Lys(N^ε -Vancomycin)-Gly-OH [(IB)],–,–,–,–,5%,42%,22%,18%,–,–,–
"CN[C@H](CC(C)C)C(=O)N[C@H]1C(=O)N[C@@H](CC(N)=O)C(=O)N[C@H]2C(=O)N[C@H]3C(=O)N[C@H](C(=O)N[C@H](C(=O)NCCCNC(=O)CNC(=O)C(CSCNC(C)=O)NC(=O)C(CO)NC(=O)CN(C)C)c4cc(O)cc(O)c4-c4cc3ccc4O)[C@H](O)c3ccc(c(Cl)c3)Oc3cc2cc(c3O[C@@H]2O[C@H](CO)[C@@H](O)[C@H](O)[C@H]2O[C@H]2C[C@](C)(N)[C@H](O)[C@H](C)O2)Oc2ccc(cc2Cl)[C@H]1O (stereo partly drawn) [(IA), DimethylGly-Ser-Cys(Acm)-Gly-NH(CH2)3 NH-Vancomycin]",antimicrobial against only S. aureus,–,antimicrobial against only S. aureus,antimicrobial against only S. aureus,21%,35%,48%,31%,32 mg/mL,16 to 32 mg/mL,25%
